Reference: patent publication US20250120943A1, “RIFAMYCIN OPHTHALMIC COMPOSITION AND USE THEREOF” (AMD THERAPEUTICS LLC, priority 2022, published 2025)
Marks after values point to notes of the source that are not given here.

Columns and labels:
[1] = Rabbit, 0.5%, 50 μL, 250 μg; Sigurdsson et al. 2007; cited from earlier work
[2] = Retina exposure level of rifampicin after topical eye drops (LC/MS); assay type: in vivo, Sprague-Dawley rats; details: rat, topical eye drops 0.25% rifampicin (Ex. 1A), average of n = 3
Procedure: The remaining two rats received the same application, but 10 drops of the eye drops, in each eye under isoflurane sedation. A single drop contained 5 μL of the above-described formulation, and application of each drug drop was carried out with intervals of 30 minutes. After the eye drop application, the retina was excised from each rat under a dissection microscope. In addition, “non-treated” negative controls were used, and the retina was excised from two rats without performing any treatments on the rats. The retina was placed in a 1.5-ml microcentrifuge tube (1 retina/tube), and was fully washed with DPBS. After completion of the washing procedures, the retinal tissues in the microcentrifuge tube were frozen in dry ice, and were then preserved for quantification by LC/MS analysis.
At time points of 1 hour, 3 hours, and 7 hours after the application of the eye drops, the retinal tissues were excised from the rats under a dissection microscope. In addition, “non-treated” negative controls were used, and the retina was excised from one rat without performing any treatments on the rats. The retina was placed in a 1.5-ml microcentrifuge tube (1 retina/tube), and was fully washed with DPBS. After completion of the washing procedures, the retinal tissues in the microcentrifuge tube were frozen in dry ice, and were then preserved for quantification by LC/MS analysis. […]

[3] = Mouse pharmacokinetics after SC injection, sclera+sub-retina complex (LC/MS)
Procedure: This effective dosage and administration route was evaluated in dose escalation studies by using the mouse laser-induced CNV model. […] In 1 hr, 3 hr, 6 hr, and 18 hr after the SC injection, eyeballs were extracted. Tissue from the retina and tissue from the sclera+sub-retina complex were isolated and extracted. These tissues were immediately frozen in liquid nitrogen. The tissue was subjected to LC/MS analysis for quantitation. The detection limit was 0.25 ng/g tissue.

[4] = test system: CNV induced in sub-retina tissues; test: Mouse laser-induced CNV model, CNV area by FITC-dextran fluorescence; assay type: in vivo, C57BL/6J mice; details: for Average CNV area (%): n = 10, day 7, vehicle = 100
Procedure: Eyes of C57BL/6J mice were laser irradiated, and CNV were induced in sub-retina tissues in the eyes. […] In 7 days after the laser irradiation, a FITC-dextran solution was administered to the tail vein. The eyeballs were removed under euthanasia, and the removed eyeballs were fixed with 4% paraformaldehyde phosphate buffer. The cornea, iris and lens were excised, and retinal tissues other than retinal pigment epithelium cells were stripped using a microspacer. The optic cups were divided into 4 to 6 sections using a corneal microscissor, and they were placed on a slide glass. […] The CNV areas were quantified using ImageJ (TABLES 11-1 and 11-2; Image software publicly available by NIH).

[5] = test system: Neovascularization in retina of oxygen-induced retinopathy rat models; test: Oxygen-induced retinopathy rat model, capillaries counted in histology sections; assay type: in vivo, Sprague-Dawley rat; details: vehicle only 16.3

Rifampicin extracted from retina ([2]; 3 drops of 5 μL at 30 min intervals) | Rifampicin extracted from retina ([2]; 10 drops of 5 μL at 30 min intervals) | Ave. rifampicin delivered to sclera + sub-retina complex ([3]; SC 0.7 mg/kg, 18 hr, detection limit 0.25 ng/g tissue) | Share of rifampicin in sub-retina+sclera complex delivered to the sub-retina ([3]; SC injection) | Structure (SMILES) | Drug amount detected in retina [1] | Dosage that significantly inhibited neovascularization (effective dosage) ([4]; SC injection, mouse laser-induced CNV model) [mg/kg] | Average CNV area (%) ([4]; SC once daily 0.2 mg/kg, P >0.05 (TABLE 11-1)) | Average CNV area (%) ([4]; SC once daily 0.7 mg/kg, P 0.003 (TABLE 11-2)) | Average CNV area (%) ([4]; SC once daily 0.7 mg/kg, P 0.045 (TABLE 11-1)) | Average CNV area (%) ([4]; SC once daily 2 mg/kg, P 0.011 (TABLE 11-2)) | Average numbers of capillaries in high power field per eye ([5]; 0.25% rifampicin topical eye drop (Ex. 1A), three times daily P15-P19, n = 3, P value = 0.0058) | Average numbers of capillaries in high power field per eye ([5]; 0.5% rifampicin SC injection (Ex. 6A), 20 mg/kg once a day P15-P19, n = 3, P value = 0.0102)
 |  |  |  | C[C@@H]1C[C@H]2[C@@H]3CCC4=CC(=O)C=C[C@]4(C)[C@@]3(F)[C@@H](O)C[C@]2(C)[C@@]1(O)C(=O)CO [Dexamethasone] | About 33 ng/1 g ng/1 g of retinal tissues |  |  |  |  |  |  | 
1,288* ng/1 g of tissues | 2,939* ng/1 g of tissues | BDL | approximately 70% | CO[C@H]1/C=C/O[C@@]2(C)Oc3c(C)c(O)c4c(O)c(c(/C=N/N5CCN(C)CC5)c(O)c4c3C2=O)NC(=O)/C(C)=C\C=C\[C@H](C)[C@H](O)[C@@H](C)[C@@H](O)[C@@H](C)[C@H](OC(C)=O)[C@@H]1C [Rifampicin, rifampicin] |  | 0.7 | 90.17 | 74.78 | 81.00 | 78.33 | 7.78 | 9.28
